Values after ≈ are worked out from the molar mass of the structure shown. Values joined by “and” are separate entries in the source; they are usually repeats but may differ in a detail not shown here. Equal values may be shown once. Read-outs that look alike come from different tables or passages of the source. Blank lines part the entries; values can stand above or below the compound they belong to.
What was measured:
[1] = donor: pure buffer pH 2.0; cited from earlier work
[2] = cationic species of FCZ in acidic solution; first value, CD not printed (β-CD assumed); cited from earlier work
[3] = cited from earlier work
[4] = In vitro permeability, Franz diffusion cell, PermeaPad barrier; assay type: in vitro ADME; conditions: for Papp at 5 h: read-out: Papp, PermeaPad (PP)
Experimental: (§1) Permeability experiments were performed using the reverse dialysis set-up adapted to the Franz diffusion cell (PermeGear, Inc., Hellertown, PA, USA). This method was successfully applied by di Cagno et al. for the permeability evaluation of a whole set of diverse drugs. The donor solution of the investigated compound was placed in the lower chamber. The membrane was mounted between the donor and acceptor chambers. At the start of the experiment, the upper (acceptor) compartment was filled with the respective pure buffer. The donor solution was stirred with a magnetic stirrer bar. The samples of 0.5 mL were withdrawn from the receptor solution each 30 min over 5 h and replaced with the same volume of pure buffer. The volume of the donor solution in the lower compartment was 7 mL and the receptor volume was 1 mL. A schematic diagram of the equipment is illustrated in Figure 2.
(§2) Two types of barriers were applied for the permeability evaluation: the regenerated cellulose membrane (RC) with a molecular weight cut off MWCO 12–14 kDa (Standard Grade RC Dialysis Membrane, Flat Width 45 mm) and the PermeaPad (PP) barrier (PHABIOC, Germany, www.permeapad.com, accessed on 20 May 2021). The PermeaPad barrier was used as received from the supplier. The cellulose membrane was pretreated with distilled water for 30 min and the traces of water were removed with filter paper before use. The membrane effective surface area was 0.785 cm^2. Buffer solution pH 2.0 was applied throughout the experiment due to impossibility of the drug detection in the receptor solution at pH 7.4, where S-119 solubility is extremely low. […] The temperature of the system was maintained at 37.0 ± 0.1 °C. The concentrations of the sample solutions were measured using spectrophotometer (Spectramax 190; Molecular devices, Molecular Devices Corporation, California, CA, USA) in 96-well UV black plates (Costar) at λ = 261 nm. The permeation plots were constructed as the amount of the permeated drug over the surface area (dQ/A) versus time (t). Flux (J) was calculated as a slope of permeation plots by the equation:(2) J=dQ/A×dt
(§3) The slope (J) normalized by the concentration of the drug in the donor compartment (C0) represents the apparent permeability coefficient (Papp):(3) Papp=J/C0
(§4) The average value of Papp from at least 3 experiments was taken into consideration.

[5] = In vitro permeability, Franz diffusion cell, regenerated cellulose membrane; assay type: in vitro ADME; conditions: for Papp at 5 h: read-out: Papp, Cellulose Membrane (RC)
Experimental: as §1, §2, §3, §4

[6] = cationic species of FCZ in acidic solution; second value, CD not printed (HP-β-CD assumed); cited from earlier work
[7] = Phase solubility study: equilibrium solubility of S-119 in buffers with excipients; assay type: physicochemical; conditions: for solubility enhancement vs pure buffer: pH 2.0
Experimental: (§5) Excess amounts of S-119 were added to buffered aqueous solutions containing increasing concentrations of excipients.
(§6) In order to analyze the information on solubilization, micelle formation and complexation obtained in the present study, the standard Gibbs energy (at 25 °C) of the outlined processes was calculated by the following equations:(7) ΔGS0(Cexc)=−RTlnS2/S20, where ΔGS0(Cexc) —the standard free energy of solubilization—transferring a compound from the aqueous buffer solution to the excipient solution of a defined concentration (Cexc), S20 and S2 —the solubility of a drug in pure buffer and at a defined excipient concentration, respectively; R is the universal gas constant; T is the standard temperature of 25 °C (8) ΔGC^0=−RTlnKs where ΔGC0 is the change of the complexation Gibbs energy, KS is the stability constant of the complexation reaction (9) ΔGm/w0=−RTlnKm/w where ΔGm/w0 is the standard Gibbs energy of the partition between the micelle and water phases, Km/w is the partition coefficient.

[8] = Complexation with α-CD (phase solubility, Higuchi and Connors); assay type: physicochemical; conditions: for Stability constant (KS): S-119/α-CD complex; for Stability constant (KS) / Complexation efficiency (CE) / Gibbs free energy of complexation (ΔGC0): 25 °C; for Complexation efficiency (CE): S-119/α-CD
Experimental: as §5, §6

[9] = cited from earlier work; remark: listed apart in the source
[10] = Complexation with HP-β-CD (phase solubility, Higuchi and Connors); assay type: physicochemical; conditions: for Gibbs free energy of complexation (ΔGC0) / Stability constant (KS) / Complexation efficiency (CE): 25 °C; for Stability constant (KS): S-119/HP-β-CD complex; for Complexation efficiency (CE): S-119/HP-β-CD
Experimental: as §5, §6

[11] = parameters: method as in doi:10.1016/j.molliq.2021.116535; conditions: cited from earlier work
[12] = Micellar solubilization by non-ionic surfactants (solubilization capacity, micelle/water partition); conditions: F127; pH 7.4; 25 °C
Experimental: Moreover, the increase in the surfactant concentration can reduce the number of hydrogen binding sites available for the association of the compound and surfactant. At that point, the surfactant molecules interact with water, affect its structuring and hinder the interactions with positively charged species. […] To this end, the solubilization capacity (χ) representing the amount of the compound that can be solubilized by one mole of polymer was calculated using the following equation [53]:(4) χ=(S2−S20)/(Csurf−CMC) where S2 and S20 are the total solute solubility at a particular concentration of surfactant solution and the intrinsic solute solubility, respectively; Csurf is the surfactant concentration; CMC is the surfactant critical micelle concentration. All concentrations are expressed in molarity. Taking into account that above the CMC the concentration of surfactant monomers is equal to the CMC, the concentration of micelles can be determined as (Csurf − CMC). The CMC of Brij S20 and F127 were taken from the literature [54, 55, 56, 57]. […] Besides this, a micelle/water molar partition coefficient (Km/w) was derived using the following equation [58]:(5) Km/w=Sm/S20=(S2−S20)/S20
The favorable/unfavorable character of any process can be assessed using Gibbs free energy.

[13] = Complexation with O-M-β-CD (phase solubility, Higuchi and Connors); assay type: physicochemical; conditions: for Gibbs free energy of complexation (ΔGC0) / Stability constant (KS) / Complexation efficiency (CE): 25 °C; for Stability constant (KS): S-119/O-M-β-CD complex; for Complexation efficiency (CE): S-119/O-M-β-CD
Experimental: as §5, §6

[14] = Complexation with β-CD (phase solubility, Higuchi and Connors); assay type: physicochemical; conditions: for Stability constant (KS): S-119/β-CD complex; for Stability constant (KS) / Complexation efficiency (CE) / Gibbs free energy of complexation (ΔGC0): 25 °C; for Complexation efficiency (CE): S-119/β-CD
Experimental: as §5, §6

[15] = pH 2, donor: pure buffer pH 2.0, 37 °C
[16] = donor: 1.5 w/v% 6-O-M-β-CD in buffer pH 2.0, 37 °C
[17] = donor: 1.5 w/v% HP-β-CD in buffer pH 2.0, 37 °C
[18] = donor: 1.5 w/v% β-CD in buffer pH 2.0, 37 °C
[19] = donor: pure buffer pH 2.0, 37 °C
[20] = pH 2, donor: 1.5 w/v% 6-O-M-β-CD in buffer pH 2.0, 37 °C
[21] = pH 2, donor: 1.5 w/v% HP-β-CD in buffer pH 2.0, 37 °C
[22] = pH 2, donor: 1.5 w/v% β-CD in buffer pH 2.0, 37 °C

- flux J, PermeaPad (PP) ([4]; 5 h, pH 2): 3.50 × 10^−5 µM∙cm^−2∙s^−1
- flux J, Cellulose Membrane (RC) ([5]; 5 h, pH 2): 1.31 × 10^−4 µM∙cm^−2∙s^−1
- Papp at 5 h [5, 15]: 49 ×10⁻⁶ cm/s
SMILES: OC(Cn1cncn1)(Cn1cncn1)c1ccc(F)cc1F [FCZ, fluconazole]
- Papp, PermeaPad (PP) [1]: (1.74 ± 0.03) × 10^−5 cm∙s^−1
- KS [2]: 10.7 M⁻¹
- solubility growth ([3]; 0.0016 M aqueous β-CD solution): 1.1 fold
- solubility increase ([3]; 0.004 M HP-β-CD): 1.2 fold
- higher solubility ([3]; 0.08 M aqueous HP-β-CD): 4 fold
- solubility enhancement ([3]; aqueous 0.02 M β-CD): 1.84 fold
- KS [6]: 13.5 M⁻¹

SMILES: OC(CN1CCN(CC(O)(Cn2cncn2)c2ccc(F)cc2F)CC1)(Cn1cncn1)c1ccc(F)cc1F (stereo not drawn) [S-119, 3,3′-(piperazine-1,4-diyl)bis(2-(2,4-difluorophenyl)-1-(1H-1,2,4-triazol-1-yl)propan-2-ol)]
- solubility growth vs pure buffer ([7]; 0.0015 M β-CD, pH 7.4): 6.8 fold
- solubility growth vs pure buffer ([7]; 0.01 M HP-β-CD, pH 7.4): 24 fold
- solubility growth vs pure buffer ([7]; 0.07 M HP-β-CD, pH 7.4): 151 fold
- solubility growth vs pure buffer ([7]; 20% PVP): 232 fold
- solubility enhancement vs pure buffer ([7]; 10 w/v% PEG 6000): 1.45 fold
- solubility enhancement vs pure buffer ([7]; 10 w/v% PEG 35000): 1.20 fold
- solubility enhancement vs pure buffer ([7]; 10 w/v% PVP): 1.32 fold
- growth of solubility vs pure buffer ([7]; pH 7.4, 10 w/v% Brij S20): 199 fold
- growth of solubility vs pure buffer ([7]; pH 7.4, 10 w/v% F-127): 281 fold
- extent of the solubilization vs pure buffer ([7]; pH 7.4, PEG 6000): 193 fold
- extent of the solubilization vs pure buffer ([7]; pH 7.4, PVP): 232 fold
- Stability constant (KS) ([8]; pH 2.0): 5.0 ± 0.2 M⁻¹ and 5 M⁻¹
- Stability constant (KS) ([8]; pH 7.4): 304.4 ± 17 M⁻¹
- Complexation efficiency (CE) ([8]; pH 2.0): 2.2%
- Complexation efficiency (CE) ([8]; pH 7.4): 1.2%
- phase solubility diagram type (Higuchi and Connors classification) ([8]; α-CD, both pHs): AL-type
- Gibbs free energy of complexation (ΔGC0) ([8]; α-CD, pH 2.0): -0.956 kcal/mol
- Gibbs free energy of complexation (ΔGC0) ([8]; α-CD, pH 7.4): -3.387 kcal/mol
- logD^oct [9]: 1.43
- phase solubility diagram type (Higuchi and Connors classification) ([10]; HP-β-CD, both pHs): AL-type
- Gibbs free energy of complexation (ΔGC0) ([10]; HP-β-CD, pH 2.0): -1.57 kcal/mol
- complex stability relative to FCZ complex ([10]; HP-β-CD, pH 7.4): 52 fold
- Gibbs free energy of complexation (ΔGC0) ([10]; HP-β-CD, pH 7.4): -4.577 kcal/mol
- Stability constant (KS) ([10]; pH 2.0): 14.0 ± 0.6 M⁻¹
- Stability constant (KS) ([10]; pH 7.4): 2261.0 ± 79.0 M⁻¹
- Complexation efficiency (CE) ([10]; pH 2.0): 6.2%
- Complexation efficiency (CE) ([10]; pH 7.4): 9.1%
- solubility in aqueous solutions ([11]; pH 2.0): 4450 µM (≈ 2490 µg/mL)
- solubility in aqueous solutions ([11]; pH 7.4): 40.1 µM (≈ 22.5 µg/mL)
- Gibbs free energy of micelle formation (ΔGm/w0) [12]: -6.205 kcal/mol
- permeability class (classification of di Cagno et al. for PermeaPad) ([4]; 1.5 w/v% CDs in donor solution, pH 2.0): low-medium permeability class
- permeability decrease vs pure buffer ([4]; PP barrier, 1.5 w/v% O-M-β-CD donor solution, pH 2.0): 2.63 fold
- permeability class (classification of di Cagno et al. for PermeaPad) ([4]; buffer pH 2.0): highly permeated substance
- flux J, PermeaPad (PP) [4, 16]: 1.01 × 10^−5 µM∙cm^−2∙s^−1
- flux J, PermeaPad (PP) [4, 17]: 1.00 × 10^−5 µM∙cm^−2∙s^−1
- flux J, PermeaPad (PP) [4, 18]: 9.93 × 10^−6 µM∙cm^−2∙s^−1
- flux J, PermeaPad (PP) [4, 19]: 2.20 × 10^−5 µM∙cm^−2∙s^−1
- Papp at 5 h [4, 20]: 5.62 ×10⁻⁶ cm/s
- Papp at 5 h [4, 21]: 7.81 ×10⁻⁶ cm/s
- Papp at 5 h [4, 22]: 6.12 ×10⁻⁶ cm/s
- Papp at 5 h [4, 15]: 14.8 ×10⁻⁶ cm/s
- permeability decrease vs pure buffer ([5]; RC membrane, 1.5 w/v% HP-β-CD donor solution, pH 2.0): 1.87 fold
- flux J, Cellulose Membrane (RC) [5, 16]: 2.68 × 10^−5 µM∙cm^−2∙s^−1
- flux J, Cellulose Membrane (RC) [5, 17]: 2.21 × 10^−5 µM∙cm^−2∙s^−1
- flux J, Cellulose Membrane (RC) [5, 18]: 2.90 × 10^−5 µM∙cm^−2∙s^−1
- flux J, Cellulose Membrane (RC) [5, 19]: 3.49 × 10^−5 µM∙cm^−2∙s^−1
- Papp at 5 h [5, 20]: 23.1 ×10⁻⁶ cm/s
- Papp at 5 h [5, 21]: 14.5 ×10⁻⁶ cm/s
- Papp at 5 h [5, 22]: 19.6 ×10⁻⁶ cm/s
- Papp at 5 h [5, 15]: 27.1 ×10⁻⁶ cm/s
- phase solubility diagram type (Higuchi and Connors classification) ([13]; O-M-β-CD, both pHs): AL-type
- Gibbs free energy of complexation (ΔGC0) ([13]; O-M-β-CD, pH 2.0): -1.74 kcal/mol
- Gibbs free energy of complexation (ΔGC0) ([13]; O-M-β-CD, pH 7.4): -4.866 kcal/mol
- Stability constant (KS) ([13]; pH 2.0): 18.7 ± 0.7 M⁻¹
- Stability constant (KS) ([13]; pH 7.4): 3693.4 ± 185.3 M⁻¹
- Complexation efficiency (CE) ([13]; pH 2.0): 8.3%
- Complexation efficiency (CE) ([13]; pH 7.4): 14.8%
- Stability constant (KS) ([14]; pH 2.0): 27.4 ± 1.0 M⁻¹ and 27.4 M⁻¹
- Stability constant (KS) ([14]; pH 7.4): 4424.9 ± 162.7 M⁻¹
- Complexation efficiency (CE) ([14]; pH 2.0): 12.2%
- Complexation efficiency (CE) ([14]; pH 7.4): 17.7%
- phase solubility diagram type (Higuchi and Connors classification) ([14]; β-CD, linear region 0 to 0.003 M CD): BS-type
- Gibbs free energy of complexation (ΔGC0) ([14]; β-CD, pH 2.0): -1.96 kcal/mol
- complex stability relative to FCZ complex ([14]; β-CD, pH 7.4): 47 fold
- Gibbs free energy of complexation (ΔGC0) ([14]; β-CD, pH 7.4): -4.974 kcal/mol

— article PMC8621413, “New Antifungal Compound: Impact of Cosolvency, Micellization and Complexation on Solubility and Permeability Processes” (Pharmaceutics, 2021)
